Like-named read-outs stand apart in the source and are kept apart here.
Assays:
[1] = Open label pharmacokinetic study GW01-0804: serum pharmacokinetics; conditions: for Geometric LS Mean, Reference (trough serum concentration) / Geometric LS Mean, Test (trough serum concentration): Primary steady-state analysis
From the text: Subjects stayed at the study center overnight during the treatment initiation visit (Day 1, first evening application) and the end-of-treatment visit (Day 21, last evening application). […] In addition, serum PK samples were collected in the evening prior to application on Days 7 and 14 to determine trough concentrations for steady-state analysis.
In addition, single blood draws for PK analysis of trough concentrations to determine steady state were obtained on Day 7 and Day 14 (in the evening prior to application). Blood samples could be obtained within ±5 minutes of the target sampling time.
Pharmacokinetic variables will be calculated from the serum concentration data using standard, non-compartmental methods.

[2] = system: rabbit left ventricular wedge preparation; assay: Arterially perfused rabbit left ventricular wedge preparation (QT, QRS, Tp-e, arrhythmogenesis)
Procedure: New Zealand White rabbits, either sex weighing 2.3-2.8 kg were anticoagulated with heparin and anesthetized with ketamine/xylazine (40-50 mg/0.5-1.0 mg, per kg, i.v.). The chest was opened via a left thoracotomy, and the heart was excised and placed in a cardioplegic solution consisting of cold (4° C.) normal Tyrode's solution. Transmural wedges with dimensions of approximately 1.5 cm wide and 2-3 cm long were dissected from the left ventricle as described before (Liu et al, Heart Rhythm 2006; 3:948-956). The tissue was cannulated via a small branch of the left anterior descending artery and perfused with cardioplegic solution. […] The ventricular wedge was allowed to equilibrate in the tissue bath until electrically stable for one hour. The preparations were stimulated at basic cycle lengths (BCL) of 1000 and 2000 ms using bipolar silver electrodes insulated except at the tips and applied to the endocardial surface.
The QT interval was defined as the time from the onset of the QRS to the point at which the final downslope of the T wave crosses the isoelectric line. Transmembrane action potential from the endocardium (Endo) was recorded for identification of EADs only when QT prolongation >30% via a customer-made amplifier. Transmural dispersion of repolarization (TDR) was defined as the interval between the end and the peak of T wave (Tp-e).
The ratio of Tp-e to QT was calculated. • (6) Arrhythmic phenomena, including spontaneous R-on-T ectopic beats and TdP, were recorded if they occurred. 3.5 To Estimate Relative TdP Risk
The relative TdP risk of each compound was estimated according in which the Tp-e/QT ratio and […] phenomena were emphasized.
Results were presented as mean±SEM. Statistical analysis was performed using the Student's t-test. A p<0.05 is considered as statistically significant when compared the values at control perfusion.

[3] = Multiple oral imiquimod doses (overdosage); format: in vivo, human; conditions: multiple oral doses of >200 mg
[4] = 52-week dermal photo-carcinogenicity study; format: in vivo; conditions: hairless mice, imiquimod added to the vehicle cream
From the text: The enhancement of ultraviolet carcinogenicity is not necessarily dependent on phototoxic mechanisms. Therefore, patients should minimize or avoid natural or artificial sunlight exposure to the affected areas.
In a 52-week dermal photo-carcinogenicity study, the median time to onset of skin tumor formation was decreased in hairless mice following chronic topical dosing (3×/week; 40 weeks of treatment followed by 12 weeks of observation) with concurrent exposure to UV radiation (5 days per week) with vehicle alone.

[5] = Systemic embryofetal development study, oral; format: in vivo; conditions: rats
Procedure: (§1) Note: The animal multiples of human exposure calculations were based on daily dose comparisons in this label.
Systemic embryofetal development studies were conducted in rats and rabbits.

[6] = rats, oral
Procedure: A combined fertility and peri- and post-natal development study was conducted in rats.

[7] = Single dose (oral, intraperitoneal, subcutaneous, intravenous) and repeat dose toxicity studies; conditions: for LD50: in vivo
[8] = Oral (gavage) carcinogenicity study, 24 months; format: in vivo; conditions: Wistar rats, up to 6 mg/kg 2×/week females (50×MRHD), 4 mg/kg 2×/week males (40×MRHD), 3 mg/kg 7×/week (25×MRHD)
[9] = Genotoxicity tests (five in vitro, three in vivo); conditions: five in vitro and three in vivo genotoxicity tests
[10] = Acute dermal toxicity study under occlusion; format: in vivo, rabbits
[11] = Systemic embryofetal development study, intravenous; format: in vivo; conditions: rabbits
From the text: as §1

`CC(C)Cn1cnc2c(N)nc3ccccc3c21` [Imiquimod (R-837)] gave an AUC(0-inf) ([1]; both, human, in vivo) of 5.35 ng·h/mL, an AUC(0-t) ([1]; both, human, in vivo, AUC0-24, Mean, serum, Day 1) of 3.75 ng·h/mL and an AUC(0-t) ([1]; both, human, in vivo, AUC0-24, Mean, serum, Day 21) of 6.79 ng·h/mL. The AUC(0-t) ([1]; both, human, in vivo, AUC0-t, Mean, serum, Day 1) was 3.12 ng·h/mL, the half-life ([1]; both, human, in vivo, T1/2, Mean, serum, Day 1) was 12.4 h and the half-life ([1]; both, human, in vivo, T1/2, Mean, serum, Day 21) was 24.1 h. For the same compound, the half-life ([1]; both, human, in vivo, T1/2 EFF, Mean, serum, Day 21) was 31.3 h, the “λz, Mean” value ([1]; serum, Day 1) was 0.0756 h⁻¹ and the “λz EFF, Mean” value ([1]; serum, Day 21) was 0.0380 h⁻¹. The “λz, Mean” value ([1]; serum, Day 21) was 0.0370 h⁻¹.
In the case of `COc1cc(N)c(Cl)cc1C(=O)NC1CCN(CCCOc2ccc(F)cc2)CC1OC` (stereo not shown) [cisapride], the “Effect on Tp-e interval” value [2] is reported as “marked concentration-dependent Tp-e prolongation” and the “Equivocal EAD (preparations)” value ([2]; both, New Zealand White, rabbit, 0.5 uM) is reported as 1 of 4.
For `CC(C)Cn1cnc2c(N)nc3ccccc3c21` [imiquimod, 1-(2-methylpropyl)-1H-imidazo[4,5-c]quinolin-4-amine], the “Most clinically serious adverse event” value [3] was “hypotension”, the “Geometric LS Mean, Reference (trough serum concentration)” value (from here on “Geometric LS Mean, Reference”) ([1]; Day 14 vs. Day 7, N 13) was 0.1543 and the “Geometric LS Mean, Test (trough serum concentration)” value (shortened to “Geometric LS Mean, Test”) ([1]; Day 14 vs. Day 7, N 13) was 0.1749. The “Geometric LS Mean, Reference” value ([1]; Day 21 vs. Day 14, N 11) was 0.1874, the “Geometric LS Mean, Test” value ([1]; Day 21 vs. Day 14, N 11) was 0.1571 and the “Geometric LS Mean, Reference” value ([1]; Day 22 vs. Day 21, N 12) was 0.1643. For the same compound, the “Geometric LS Mean, Test” value ([1]; Day 22 vs. Day 21, N 12) was 0.1839, the concentration at 7 day (trough, evening prior to application) ([1]; both, human, in vivo, Geometric LS Mean, Reference (trough serum concentration), Secondary steady-state analysis (BLQ replaced with LLOQ/2), Day 14 vs. Day 7, N 17) was 0.127 ng/mL and the concentration at 14 day (trough, evening prior to application) ([1]; both, human, in vivo, Geometric LS Mean, Reference (trough serum concentration), Secondary steady-state analysis (BLQ replaced with LLOQ/2), Day 21 vs. Day 14, N 15) was 0.115 ng/mL. The concentration at 14 day (trough, evening prior to application) ([1]; both, human, in vivo, Geometric LS Mean, Test (trough serum concentration), Secondary steady-state analysis (BLQ replaced with LLOQ/2), Day 14 vs. Day 7, N 17) was 0.126 ng/mL, the concentration at 22 day (trough, 24 h after the Day 21 application) ([1]; both, human, in vivo, Geometric LS Mean, Test (trough serum concentration), Secondary steady-state analysis (BLQ replaced with LLOQ/2), Day 22 vs. Day 21, N 15) was 0.156 ng/mL and the “Tumor development with UV radiation” value [4] was “No additional effect on tumor development beyond the vehicle effect”. For the same compound, the “Embryofetal toxicity or teratogenicity” value ([5]; 5 mg/kg/day (73×MRHD based on AUC)) was “No treatment related effects”, the Fetal effects ([5]; 20 mg/kg/day (375×MRHD based on AUC), in the presence of maternal toxicity) was “increased resorptions, decreased fetal body weights, delays in skeletal ossification, bent limb bones” and the Teratogenicity ([6]; 3 mg/kg/day (24×MRHD based on AUC)) was “No treatment related effects”. The “Finding in F1 fetuses” value ([6]; 6 mg/kg/day (50×MRHD), absence of maternal toxicity) was “bent limb bones”, the “Signs of CNS toxicity” value ([7]; lower repeat doses (100 mg/kg or lower)) was “did not occur” and the LD50 ([7]; monkey, iv, LD50, Monkey, intravenous bolus) was > 6 mg/kg. For the same compound, the LD50 ([7]; monkey, iv, LD50, Monkey, intravenous infusion) was ~8 mg/kg, the LD50 ([7]; monkey, po, LD50, Monkey) was > 200 mg/kg and the LD50 ([7]; mouse, ip, LD50, Mouse, Intraperitoneal) was 879 mg/kg. For the same compound, the LD50 ([7]; mouse, po, LD50, Mouse) was 403 mg/kg, the Single dose toxicity ([7]; oral, intraperitoneal, subcutaneous or intravenous, lethal doses) was “central nervous system (CNS) stimulation and convulsions” and the LD50 ([7]; rat, ip, LD50, Rat, Intraperitoneal) was 763 mg/kg. For the same compound, the LD50 ([7]; rat, po, LD50, Rat) was 1660 mg/kg, the LD50 ([7]; rat, sc, LD50, Rat, Subcutaneous) was ~20 mg/kg and the “Tumors in oral carcinogenicity study” value [8] was “No treatment related tumors”. For the same compound, the “Mutagenic or clastogenic potential” value [9] was “no evidence of mutagenic or clastogenic potential”, the LD50 ([10]; Rabbit, Dermal) was >5000 mg/kg and the Acute dermal toxicity ([10]; rabbits, under occlusion, 5000 mg/kg) was “did not reveal any toxic effects”. For the same compound, the “Embryofetal toxicity or teratogenicity” value ([11]; 1 mg/kg/day (234×MRHD based on AUC)) was “No treatment related effects”, the “Embryofetal toxicity or teratogenicity” value ([11]; 2 mg/kg/day (2.1×MRHD based on BSA)) was “No treatment related effects” and the QT increase ([2]; 150 nM, BCL of 2000 ms, comparable to DMSO vehicle) was 4%. For the same compound, the Proarrhythmic events ([2]; any preparation at any concentration) was “did not cause any proarrhythmic events”, the “Effect on QT interval” value ([2]; concentration range tested) was “does not have a significant effect” and the “Effect on Tp-e interval” value ([2]; concentration range tested) was “no significant effect”. For the same compound, the “Effect on QRS duration” value ([2]; imiquimod 0.5-150 nM, cisapride at 0.5 uM) was “no significant effect”.

From patent publication US10238645B2 (priority 2009, dated 2019)
